Source: patent US20230192772A1, “ANTIMICROBIAL PEPTIDES AND USES THEREOF” (SORBONNE UNIVERSITE, priority 2016, published 2023)
Values after ≈ are worked out from the molar mass of the structure shown.

Assays:
Assay in all cases: MIC/MBC (Example 10, MH medium)
Type in all cases: cell-based
[1] = tested on: Staphylococcus aureus ST 1065; conditions: Table 4
Description: (§1) The MIC is determined using a growth inhibition test in liquid medium. The MIC is defined as being the lowest peptide concentration capable of inhibiting the bacterial strain tested, after incubation for 18 h at 37° C. The test was carried out in a sterile microtitration plate containing 96 wells. A series of increasing concentrations of each peptide (0.2 to 100 µM) was prepared beforehand in sterile MilliQ water. In each well, 10 µL of peptide was incubated with 90 µL of bacterial suspension (10^7 cfu/mL) in yeast extract-free LB medium. The microplate was incubated at 37° C. for 18 h. The bacterial growth was evaluated by measuring the OD at 620 nm using a plate reader.
(§2) The negative growth inhibition control was obtained by replacing the solution containing the peptide by sterile MilliQ water. The positive control suitable for completely inhibiting the growth of the bacterial strains was obtained by replacing the solution containing the peptide by 10 µL of formaldehyde.
(§3) The results are interpreted by calculating the percentage of bacterial growth in each well according to the formula:
(§4) %Growth = (OD well - OD of T0)/(OD of T100-OD of T0)*100 where
(§5) • OD of T100 = OD of growth control (bacterial suspension free from sample under test, 100% growth), • OD of T0 = OD of sterility control (culture medium + bacterium + 10 µL formaldehyde, 0% growth) and • OD well = OD of well for which it is sought to calculate the growth percentage (bacterial suspension + peptide under test).
(§6) The MBC is defined as being the minimum peptide concentration leaving no surviving bacteria of the inoculum after incubation at 37° C. for 24 hours. This test consists of smearing the contents of the well wherein the peptide has inhibited bacterial growth on a Petri dish (LB agar), followed by incubation for 24 h at 37° C.
(§7) A 10 mL preculture in Muller-Hinton (MH) medium is prepared by inoculating a colony of the bacterial strain of interest. The preculture is incubated at 37° C. under stirring overnight. The culture is subcultured to 1:100 under the same conditions. The culture concentration is evaluated by measuring the turbidity at 600 nm (OD600 nm 1.0 = 5 × 10^8 CFU/mL for E. coli (Gram-negative bacteria) and 1.5 × 10^8 CFU/mL for S. aureus (Gram-positive bacteria). Once the exponential growth phase (OD600 nm = 0.3 - 0.7) has been achieved, the cultures are diluted in MH medium so as to obtain 10^6 CFU/mL (final inoculum concentration).
(§8) The MIC and the MBC were determined as per the protocol described in part 2.1 of Example 2.

[2] = tested on: Salmonella enterica CIP 8297; conditions: Table 4
Description: as §1, §2, §3, §4, §5, §6, §7, §8

Escherichia coli K12 = conditions: Table 4
Description: as §1, §2, §3, §4, §5, §6, §7, §8

[3] = tested on: Pseudomonas aeruginosa ATCC 27853; conditions: Table 4
Description: as §1, §2, §3, §4, §5, §6, §7, §8

[4] = tested on: Yersinia ruckeri ATCC 29473; conditions: Table 4
Description: as §1, §2, §3, §4, §5, §6, §7, §8

[5] = tested on: Klebsiella pneumoniae CIP 52.211; conditions: Table 4
Description: as §1, §2, §3, §4, §5, §6, §7, §8

[6] = tested on: Enterococcus faecalis CIP A186; conditions: Table 4
Description: as §1, §2, §3, §4, §5, §6, §7, §8

[7] = tested on: Escherichia coli P7 (ESBL); conditions: Table 4
Description: as §1, §2, §3, §4, §5, §6, §7, §8

[8] = tested on: Escherichia coli ATCC 8739
Description: as §1, §2, §3, §4, §5, §6, §7, §8

[9] = tested on: Pseudomonas aeruginosa ATCC 9027
Description: as §1, §2, §3, §4, §5, §6, §7, §8

[10] = tested on: Enterococcus faecalis CIP 103015
Description: as §1, §2, §3, §4, §5, §6, §7, §8

[11] = tested on: Kocuria rhizophila ATCC 9341; conditions: Table 4
Description: as §1, §2, §3, §4, §5, §6, §7, §8

[12] = tested on: Lactococcus garviae ATCC 43921; conditions: Table 4
Description: as §1, §2, §3, §4, §5, §6, §7, §8

[13] = tested on: Staphylococcus aureus ATCC 6538
Description: as §1, §2, §3, §4, §5, §6, §7, §8

[14] = tested on: Vibrio parahemolyticus IFREMER 01/252; conditions: Table 4
Description: as §1, §2, §3, §4, §5, §6, §7, §8

[15] = tested on: Listeria monocytogenes SOR 100; conditions: Table 4
Description: as §1, §2, §3, §4, §5, §6, §7, §8

Escherichia coli ML35p = conditions: Table 4
Description: as §1, §2, §3, §4, §5, §6, §7, §8

[16] = tested on: Staphylococcus epidermidis BM 3302; conditions: Table 4
Description: as §1, §2, §3, §4, §5, §6, §7, §8

[17] = tested on: Klebsiella oxytoca CIP 7932; conditions: Table 4
Description: as §1, §2, §3, §4, §5, §6, §7, §8

[18] = tested on: Staphylococcus aureus MRSA; conditions: Table 4
Description: as §1, §2, §3, §4, §5, §6, §7, §8

[19] = Table 4, Escherichia coli ATCC 8739
[20] = Table 4, Pseudomonas aeruginosa ATCC 9027
[21] = Table 5, P. aeruginosa ATCC 9027
[22] = Table 4, Enterococcus faecalis CIP 103015
[23] = Table 5, E. faecalis CIP 103015
[24] = Table 4, Staphylococcus aureus ATCC 6538

## CC[C@H](C)[C@H](NC(=O)CN)C(=O)NCC(=O)N[C@@H](C)C(=O)N[C@H](C(=O)N[C@@H](CC(C)C)C(=O)N[C@@H](CCCCN)C(=O)N[C@H](C(=O)N[C@@H](CC(C)C)C(=O)N[C@H](C(=O)N[C@H](C(=O)NCC(=O)N[C@@H](CC(C)C)C(=O)N1CCC[C@H]1C(=O)N[C@@H](C)C(=O)N[C@@H](CC(C)C)C(=O)N[C@H](C(=O)N[C@@H](CO)C(=O)N[C@@H](Cc1c[nH]c2ccccc12)C(=O)N[C@H](C(=O)N[C@@H](CCCCN)C(=O)N[C@@H](CCCNC(=N)N)C(=O)N[C@@H](CCCCN)C(=O)N[C@@H](CCCNC(=N)N)C(=O)N[C@@H](CCC(N)=O)C(=O)N[C@@H](CCC(N)=O)C(N)=O)[C@@H](C)CC)[C@@H](C)CC)[C@@H](C)O)[C@@H](C)O)C(C)C)C(C)C [Melittin]
[1]
  MBC: 10 µM (≈ 28.5 µg/mL)
  MIC: 10 µM (≈ 28.5 µg/mL)
[2]
  MBC: > 50 µM
  MIC: 50 µM (≈ 142 µg/mL)
Escherichia coli K12
  MBC: 10 µM (≈ 28.5 µg/mL)
  MIC: 10 µM (≈ 28.5 µg/mL)
[3]
  MBC: > 50 µM
  MIC: 50 µM (≈ 142 µg/mL)
[4]
  MBC: 12.5 µM (≈ 35.6 µg/mL)
  MIC: 6.25 µM (≈ 17.8 µg/mL)
[5]
  MBC: 10 µM (≈ 28.5 µg/mL)
  MIC: 10 µM (≈ 28.5 µg/mL)
[6]
  MBC: 12.5 µM (≈ 35.6 µg/mL)
  MIC: 12.5 µM (≈ 35.6 µg/mL)
[7]
  MBC: 6.25 µM (≈ 17.8 µg/mL)
  MIC: 6.25 µM (≈ 17.8 µg/mL)
[8]; [19]
  MBC: 2.5 µM (≈ 7.12 µg/mL)
  MIC: 2.5 µM (≈ 7.12 µg/mL)
[8]; Table 5, E. coli ATCC 8739
  MBC: 2.5 µM (≈ 7.12 µg/mL)
  MIC: 2.5 µM (≈ 7.12 µg/mL)
[9]; [20]
  MBC: 5 µM (≈ 14.2 µg/mL)
  MIC: 5 µM (≈ 14.2 µg/mL)
[9]; [21]
  MBC: 5 µM (≈ 14.2 µg/mL)
  MIC: 5 µM (≈ 14.2 µg/mL)
[10]; [22]
  MBC: 1.25 µM (≈ 3.56 µg/mL)
  MIC: 1.25 µM (≈ 3.56 µg/mL)
[10]; [23]
  MBC: 1.2 µM (≈ 3.42 µg/mL)
  MIC: 1.2 µM (≈ 3.42 µg/mL)
[11]
  MBC: 0.8 µM (≈ 2.28 µg/mL)
  MIC: 0.8 µM (≈ 2.28 µg/mL)
[12]
  MBC: 25 µM (≈ 71.2 µg/mL)
  MIC: 6.25 µM (≈ 17.8 µg/mL)
[13]; [24]
  MBC: 5 µM (≈ 14.2 µg/mL)
  MIC: 5 µM (≈ 14.2 µg/mL)
[13]; Table 5, S. aureus ATCC 6538
  MBC: 5 µM (≈ 14.2 µg/mL)
  MIC: 5 µM (≈ 14.2 µg/mL)
[14]
  MBC: > 50 µM
  MIC: > 50 µM
[15]
  MBC: 3.12 µM (≈ 8.88 µg/mL)
  MIC: 1.5 µM (≈ 4.27 µg/mL)
Escherichia coli ML35p
  MBC: 10 µM (≈ 28.5 µg/mL)
  MIC: 10 µM (≈ 28.5 µg/mL)
[16]
  MBC: 10 µM (≈ 28.5 µg/mL)
  MIC: 10 µM (≈ 28.5 µg/mL)
[17]
  MBC: 50 µM (≈ 142 µg/mL)
  MIC: 25 µM (≈ 71.2 µg/mL)
[18]
  MBC: 12.5 µM (≈ 35.6 µg/mL)
  MIC: 6.25 µM (≈ 17.8 µg/mL)
